The values that follow come from patent US6566081B1, “Methods of identifying a compound which modulates the non-transcriptional non-map-kinase induced effects of steroid hormones” (The Brigham and Women's Hospital, Inc., priority 1999, dated 2003).

The test system of one data set is Akt/PKB. Nature of the data set: Immunoblotting of Akt phosphorylation (Thr 308, Ser 473). The data set is classed as cell-based, human. The procedure:
(§1) After the different treatments, serum-starved endothelial cells were rinsed once with ice-cold PBS before addition of the lysis buffer (100 mM Tris-HCl, pH 6.8, 4% SDS, 20% glycerol, 1 mM sodium orthovanadate, 1 mM NaF, and 1 mM phenylmethylsulfonylfluoride) to the dishes on an ice tray. The cell lysates were scraped, boiled, and centrifuged for 2 min at 13000 rpm. Total cell lysates (40 μg of protein) and low range molecular weight markers (BIO-RAD, Hercules, Calif.) were separated by SDS-polyacrylamide gel electrophoresis (12% running, 4% stacking), electrophoretically transferred to polyvinylidene fluoride membranes (Immobilon P, 0.45 μm pore size) and incubated overnight at 4° C. with blocking solution (5% skim milk in TBS—0.1% Tween 20). Affinity-purified rabbit antibodies (0.4 μg of IgG/ml) vs. Akt, (Ser 473) phospho-Akt or (Thr 308) phospho-Akt (New England BioLabs, Beverly, Mass.), Erk1/2, (Tyr 204) phospho-Erk-1/-2 (Calbiochem, San Diego, Calif.) were incubated with the membranes overnight at 4° C. in TBS—0.1% Tween 20 containing 5% BSA. The blots were washed three times with TBS—0.1% Tween 20 and then treated with donkey anti-rabbit antibody (1:4000 dilution) coupled to horseradish peroxidase. Immunodetection was accomplished using the enhanced chemoluminescence kit (ECL Kit, Amersham Corp.).

A further data set concerns PtdIns-3,4,5-P3. Put plainly: Endogenous PtdIns-3,4,5-P3 levels in non-transfected human endothelial cells. The format is cell-based. The following applies: E2 10 nM, insulin 100 nM.
The test system of data set [1] is mouse cremaster muscle venules. Put plainly: Model of vascular injury: ischemia and reperfusion in the mouse cremaster muscle (leukocyte rolling and adhesion). The following applies: mice with 1.5 mg slow-release E2 tablets s.c. The data set is classed as in vivo. As to the method: (§2) Mice were anesthetized and the cremaster muscle was studied under intravital microscopy^28. Ischemia was induced by applying pressure to supplying arteries just sufficient to stop blood flow for 30 min. In some experiments, wortmannin (100 nM) or L-NAME (0.1 mM) was applied to the cremaster muscle during the ischemic period. The pressure was released for reperfusion, and the same vessels were recorded in each animal before and after I/R. The rolling velocities of 25 leukocytes were measured in each venule; sorted and averaged for each rank to construct cumulative histograms. The velocities of 3,750 leukocytes were measured in 150 venules before and after I/R. The number of firmly adherent leukocytes was measured before and after I/R in the same 200 μm long segments of venules.

The nature of data set [2]: Serum E2 level in mice implanted with E2 tablets. The data set is classed as in vivo, mouse. The following applies: mice implanted s.c. with 1.5 mg slow-release E2 tablets, 3-5 days.
In data set [3] the test system is eNOS. Nature of the data set: E2-stimulated eNOS activity in transfected murine fibroblasts. The following applies: murine fibroblasts transfected with ERα and eNOS cDNAs.
The next data set deals with NO release. Put plainly: Nitrite assay (NO accumulation from endothelial cells). The data set is classed as cell-based, human. The following applies: for stimulation of NO release / production (nitrite accumulation): 30 min, E2/αE2 10 nM, insulin 100 nM, acetylcholine; for effect on E2-induced NO release / production: E2 10 nM 30 min, ICI 10 μM, wortmannin 30 nM. As to the method: NO accumulation from serum-starved endothelial cells was determined by a modified nitrite assay using 2, 3 diaminonaphtalene as described previously.^33 Fluorescence of 1-(H)-naphtotriazole was measured with excitation and emission wavelengths of 365 and 450 nm, respectively. Standard curves were constructed with known amounts of sodium nitrite. Nonspecific fluorescence was determined in the presence of LNMA (3 mM).

Another data set deals with PI3K. Put plainly: p-Tyr- and IRS-1-associated PI3K activity (immunoprecipitate). The format is cell-based, human. The following applies: p-Tyr and IRS-1 immunoprecipitate.
Data set [4] concerns the target T1, eNOS (Mus musculus, UniProt P70313).
T1 construct: from tissue; host or cells: cremaster muscle of male C57BL/6 mice
Put plainly: Cremaster eNOS activity in mice. The data set is classed as in vivo. The following applies: mice with 1.5 mg slow-release E2 tablets s.c. As to the method:
as §2, with “venules. The following number of venules were studies for leukocyte adhesion: Untreated, 15 venules; E2-treated, 20 venules; E2-treated with wortmannin, 25 venules; E2-treated with L-NAME, 15 venules. Cremaster eNOS activity was measured in 3 untreated, 4 E2-treated, 5 E2-treated with wortmannin, and 4 E2-treated with L-NAME mice.” for “venules.”

For another data set, the system named is ERK 1 and 2. Nature of the data set: Immunoblotting of ERK 1/2 phosphorylation. The data set is classed as cell-based, human. The following applies: E2 10 nM, from 2 minutes. As to the method: as §1
(In general: Immunoblotting shows a protein as a band on a membrane.)

The next data set has as its target T2, ER-α / PI3-kinase p85α (Homo sapiens, UniProt P03372).
T2 construct: endogenous in cells; host or cells: human endothelial cells (HSVEC), anti-ERα immunoprecipitate
T2 sequence (P03372 1-595): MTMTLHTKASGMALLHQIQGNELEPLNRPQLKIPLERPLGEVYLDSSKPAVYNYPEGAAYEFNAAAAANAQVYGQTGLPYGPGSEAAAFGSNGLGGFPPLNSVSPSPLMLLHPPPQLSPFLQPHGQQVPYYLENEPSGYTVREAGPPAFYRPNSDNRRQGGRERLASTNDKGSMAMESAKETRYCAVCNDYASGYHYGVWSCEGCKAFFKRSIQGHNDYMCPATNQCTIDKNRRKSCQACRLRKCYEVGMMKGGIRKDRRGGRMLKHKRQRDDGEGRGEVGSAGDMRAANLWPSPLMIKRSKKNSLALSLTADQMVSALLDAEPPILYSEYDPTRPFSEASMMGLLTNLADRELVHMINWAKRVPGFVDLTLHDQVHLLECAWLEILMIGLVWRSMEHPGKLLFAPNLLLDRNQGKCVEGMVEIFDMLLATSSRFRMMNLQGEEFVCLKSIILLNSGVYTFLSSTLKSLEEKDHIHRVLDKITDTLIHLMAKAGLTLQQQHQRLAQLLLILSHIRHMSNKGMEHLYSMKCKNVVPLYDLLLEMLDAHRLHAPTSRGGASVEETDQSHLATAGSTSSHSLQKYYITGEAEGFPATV
Put plainly: ER-α immunoprecipitation: co-precipitated p85α and associated PI3-kinase activity. The data set is classed as cell-based. The following applies: ER-α immunoprecipitate.

Where [5] appears, read: E2/αE2 10 nM, insulin 100 nM, 20 min.

Entries after “also recorded” stand apart in the source; their conditions may differ.

T1 sequence (P70313 2-1202): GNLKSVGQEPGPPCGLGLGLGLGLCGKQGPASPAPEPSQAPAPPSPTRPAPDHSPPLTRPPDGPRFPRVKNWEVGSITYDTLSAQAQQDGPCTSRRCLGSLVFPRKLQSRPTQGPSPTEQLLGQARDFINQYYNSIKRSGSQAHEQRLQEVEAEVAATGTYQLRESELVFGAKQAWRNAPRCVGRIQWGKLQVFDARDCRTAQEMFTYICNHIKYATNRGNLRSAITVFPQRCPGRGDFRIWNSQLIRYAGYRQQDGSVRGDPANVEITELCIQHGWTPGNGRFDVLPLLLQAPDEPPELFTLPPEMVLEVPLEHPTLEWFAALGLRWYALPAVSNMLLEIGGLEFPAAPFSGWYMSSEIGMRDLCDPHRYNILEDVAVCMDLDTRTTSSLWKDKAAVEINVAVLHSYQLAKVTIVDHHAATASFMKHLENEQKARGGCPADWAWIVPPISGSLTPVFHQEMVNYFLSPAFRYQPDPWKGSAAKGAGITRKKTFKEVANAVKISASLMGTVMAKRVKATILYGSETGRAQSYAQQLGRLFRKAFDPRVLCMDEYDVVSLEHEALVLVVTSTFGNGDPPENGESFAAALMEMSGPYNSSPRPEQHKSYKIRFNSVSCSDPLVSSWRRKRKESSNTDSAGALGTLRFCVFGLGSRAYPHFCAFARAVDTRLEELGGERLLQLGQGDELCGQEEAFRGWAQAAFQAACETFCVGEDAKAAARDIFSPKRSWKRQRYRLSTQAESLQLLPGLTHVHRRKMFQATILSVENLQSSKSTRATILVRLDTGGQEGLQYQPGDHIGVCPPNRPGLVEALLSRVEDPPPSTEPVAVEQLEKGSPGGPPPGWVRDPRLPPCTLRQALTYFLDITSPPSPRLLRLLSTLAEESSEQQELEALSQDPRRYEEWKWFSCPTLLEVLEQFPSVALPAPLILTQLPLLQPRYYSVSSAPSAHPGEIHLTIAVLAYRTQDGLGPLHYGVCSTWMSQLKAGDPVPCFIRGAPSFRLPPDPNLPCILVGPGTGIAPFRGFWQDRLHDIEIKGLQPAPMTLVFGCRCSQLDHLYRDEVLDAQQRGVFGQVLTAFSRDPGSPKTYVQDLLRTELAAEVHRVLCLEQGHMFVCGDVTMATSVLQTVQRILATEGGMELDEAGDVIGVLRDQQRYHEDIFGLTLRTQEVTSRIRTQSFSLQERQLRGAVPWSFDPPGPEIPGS

Turning to 17β-estradiol [E2], in the data set with Akt/PKB (setting [5]), the “Akt Ser 473 phosphorylation” value is “hyperphosphorylated after 20 minutes” and the “Akt threonine (Thr 308) phosphorylation” value is on record as “phosphorylated after 20 minutes; also recorded: increase in Akt phosphorylation”. Further, in the data set with PtdIns-3,4,5-P3, the “endogenous PtdIns-3,4,5-P3 levels” value was “increased”. In addition, the “changes in leukocyte accumulation and rolling velocity following I/R” value in data set [1] is recorded as “prevented”. For the same molecule, the “serum E2 level” value in data set [2] turned out to be 760 ± 30 pg/mL. Moreover, the “increase in eNOS activity, wild-type fibroblasts” value in the data set on eNOS [3] is 8 fold. Besides, the “stimulation of NO release / production (nitrite accumulation)” value in the data set on NO release is “increases NO release”. Moreover, the “p-Tyr- or IRS-1-associated PI3K activity” value in the data set with PI3K is given as “did not increase”. Also, the “increase in eNOS activity in cremaster muscle” value on eNOS [4] was 3.2 fold. Besides, in the data set with ERK 1 and 2, the “phosphorylation of ERK 1 and 2” value is listed as “increased phosphorylation”.

For `C[C@]12CC[C@@H]3c4ccc(O)cc4C[C@@H](CCCCCCCCC[S+]([O-])CCCC(F)(F)C(F)(F)F)[C@H]3[C@@H]1CC[C@@H]2O` (some centres unmarked) [ICI 187,780], in the data set with Akt/PKB (ICI 10 μM, wortmannin 30 nM), the “effect on E2-induced Akt Ser 473 phosphorylation” value is on record as “not inhibited” and the “effect on E2-induced Akt Thr 308 phosphorylation” value was “blocked”. For the same molecule, the “effect on E2-induced NO release / production” value in the data set on NO release is reported as “completely blocked”. Besides, in the data set on NO release (listed as ICI 182,780), the “effect on E2-induced NO release / production” value is listed as “prevent”. Besides, the “effect on acetylcholine-induced NO accumulation” value in the data set with NO release (acetylcholine 30 min) was “not influenced; also recorded: not affected”.

Consider “insulin: known activator of the PI3-kinase/Akt pathway”, for which, in the data set with PtdIns-3,4,5-P3, the “endogenous PtdIns-3,4,5-P3 levels” value was “rapidly increased”. For the same molecule, the “stimulation of ER-α-associated PI3-kinase activity” value with ER-α / PI3-kinase p85α is “did not increase or augment”. Also, the “stimulation of NO release / production (nitrite accumulation)” value in the data set on NO release is on record as “able to stimulate”; with NO release (listed as Insulin) it was “activates nitrite release”. Also, in the data set on PI3K, the “p-Tyr- or IRS-1-associated PI3K activity” value is “increases”.
